# Test results reported in patent US9561212B2, “Hepatitis C virus inhibitors” (BRISTOL-MYERS SQUIBB COMPANY, priority 2012, dated 2017).
# Like-named read-outs stand apart in the source and are kept apart here.
# Tested on: HCV 1b genotype
# Experiment: microbe, parasite or virus in culture
# Type: cell-based, Hepatitis C virus
# Settings: HCV 1b replicon
# Description: An HCV Replicon assay was utilized in the present disclosure, and was prepared, conducted and validated as described in commonly owned PCT/US2006/022197 and in O'Boyle et. al. Antimicrob Agents Chemother. 2005 April; 49(4):1346-53. Assay methods incorporating luciferase reporters have also been used as described (Apath.com).
# HCV-neo replicon cells and replicon cells containing resistance substitutions in the NS5A region were used to test the currently described family of compounds.
# [1] = read-out: Range: EC50 ranges against HCV 1b
# [2] = Hepatitis C virus, read-out: 1b (μM): EC50 (Effective 50% inhibitory concentration) against the HCV 1b genotype
# [3] = Hepatitis C virus, read-out: Range: EC50 ranges against HCV 1b
Compound,EC50 [1] [pM],EC50 [3] [pM],other results
"COC(=O)NC(C(=O)N1[C@@H](C)CC[C@H]1c1ncc(-c2ccc(-c3ccc(-c4cnc([C@@H]5CC[C@H](C)N5C(=O)C(NC(=O)OC)C5CCOC6(CCC6)C5)[nH]4)cc3)cc2)[nH]1)C1CCOC2(CCC2)C1 (single isomer, unassigned) [Example 2.1]",900 to 700000,,
"COC(=O)NC(C(=O)N1[C@@H](C)CC[C@H]1c1ncc(-c2ccc(-c3ccc(-c4cnc([C@@H]5CC[C@H](C)N5C(=O)C(NC(=O)OC)C5CCOC6(CCC6)C5)[nH]4)cc3)cc2)[nH]1)C1CCOC2(CCC2)C1 (single isomer, unassigned) [Example 2.2]",900 to 700000,,
"COC(=O)NC(C(=O)N1[C@@H](C)CC[C@H]1c1ncc(-c2ccc(-c3ccc(-c4cnc([C@@H]5CC[C@H](C)N5C(=O)C(NC(=O)OC)C5CCOC6(CCC6)C5)[nH]4)cc3)cc2)[nH]1)C1CCOC2(CCC2)C1 (single isomer, unassigned) [Example 2.3]",,,EC50 [2]: 4.88 pM
"COC(=O)NC(C(=O)N1[C@@H](C)CC[C@H]1c1ncc(-c2ccc(-c3ccc(-c4cnc([C@@H]5CC[C@H](C)N5C(=O)C(NC(=O)OC)C5CCOC6(CCC6)C5)[nH]4)cc3)cc2)[nH]1)C1CCOC2(CCC2)C1 (single isomer, unassigned) [Example 2.4]",5.01 to 100,,
"COC(=O)NC(C(=O)N1[C@@H](C)CC[C@H]1c1ncc(-c2ccc(-c3ccc(-c4cnc([C@@H]5CC[C@H](C)N5C(=O)C(NC(=O)OC)C5CCOC6(CCCC6)C5)[nH]4)cc3)cc2)[nH]1)C1CCOC2(CCCC2)C1 (single isomer, unassigned) [Example 3.1]",900 to 700000,,
"COC(=O)NC(C(=O)N1[C@@H](C)CC[C@H]1c1ncc(-c2ccc(-c3ccc(-c4cnc([C@@H]5CC[C@H](C)N5C(=O)C(NC(=O)OC)C5CCOC6(CCCC6)C5)[nH]4)cc3)cc2)[nH]1)C1CCOC2(CCCC2)C1 (single isomer, unassigned) [Example 3.2]",900 to 700000,,
"COC(=O)NC(C(=O)N1[C@@H](C)CC[C@H]1c1ncc(-c2ccc(-c3ccc(-c4cnc([C@@H]5CC[C@H](C)N5C(=O)C(NC(=O)OC)C5CCOC6(CCCC6)C5)[nH]4)cc3)cc2)[nH]1)C1CCOC2(CCCC2)C1 (single isomer, unassigned) [Example 3.3]",5.01 to 100,,EC50 [2]: 5.04 pM
"COC(=O)NC(C(=O)N1[C@@H](C)CC[C@H]1c1ncc(-c2ccc(-c3ccc(-c4cnc([C@@H]5CC[C@H](C)N5C(=O)C(NC(=O)OC)C5CCOC6(CCCC6)C5)[nH]4)cc3)cc2)[nH]1)C1CCOC2(CCCC2)C1 (single isomer, unassigned) [Example 3.4]",5.01 to 100,,
"COC(=O)N[C@H](C(=O)N1C(CO)CCC1c1ncc(-c2ccc(-c3ccc(-c4cnc(C5CCC(CO)N5C(=O)[C@@H](NC(=O)OC)C5C[C@@H](C)O[C@H](C)C5)[nH]4)cc3)cc2)[nH]1)C1C[C@@H](C)O[C@H](C)C1 (single isomer, unassigned) [Example 11.1]",,900 to 700000,
"COC(=O)N[C@H](C(=O)N1[C@@H](CO)CC[C@H]1c1ncc(-c2ccc(-c3ccc(-c4cnc([C@@H]5CC[C@H](CO)N5C(=O)[C@@H](NC(=O)OC)C5C[C@@H](C)O[C@H](C)C5)[nH]4)cc3)cc2)[nH]1)C1C[C@@H](C)O[C@H](C)C1 (single isomer, unassigned) [Example 11]",,900 to 700000,
"COC(=O)NC(C(=O)N1[C@@H]2C[C@@H]2C[C@H]1c1nc(-c2ccc(-c3ccc(-c4c[nH]c([C@@H]5C[C@H]6C[C@H]6N5C(=O)C(NC(=O)OC)C5[C@H]6COC[C@@H]56)n4)cc3)cc2)c[nH]1)C1[C@H]2COC[C@@H]12 (single isomer, unassigned; diastereomer 1) [QC4.1]",5.01 to 100,,
"COC(=O)NC(C(=O)N1[C@@H]2C[C@@H]2C[C@H]1c1nc(-c2ccc(-c3ccc(-c4c[nH]c([C@@H]5C[C@H]6C[C@H]6N5C(=O)C(NC(=O)OC)C5C[C@@H]6[C@H](C5)C6(F)F)n4)cc3)cc2)c[nH]1)C1C[C@@H]2[C@H](C1)C2(F)F (single isomer, unassigned; diastereomer 2) [QC2.2]",5.01 to 100,,
"COC(=O)NC(C(=O)N1[C@@H]2C[C@@H]2C[C@H]1c1nc(-c2ccc(-c3ccc(-c4c[nH]c([C@@H]5C[C@H]6C[C@H]6N5C(=O)C(NC(=O)OC)C5C[C@@H]6C[C@@H]6C5)n4)cc3)cc2)c[nH]1)C1C[C@@H]2C[C@@H]2C1 (single isomer, unassigned; diastereomer 2) [QC3.2]",5.01 to 100,,
"COC(=O)NC(C(=O)N1[C@@H]2C[C@@H]2C[C@H]1c1nc(-c2ccc(-c3ccc(-c4c[nH]c([C@@H]5C[C@H]6C[C@H]6N5C(=O)C(NC(=O)OC)C5[C@H]6COC[C@@H]56)n4)cc3)cc2)c[nH]1)C1[C@H]2COC[C@@H]12 (single isomer, unassigned; diastereomer 2) [QC4.2]",100 to 900,,
"COC(=O)N[C@@H](C(=O)N1C(c2nc(-c3ccc(-c4ccc(-c5c[nH]c(C6C[C@H]7CC7N6C(=O)[C@H](NC(=O)OC)C6C[C@@H]7[C@H](C6)C7(F)F)n5)cc4)cc3)c[nH]2)C[C@H]2CC21)C1C[C@@H]2[C@H](C1)C2(F)F (single isomer, unassigned; diastereomer 3) [QC2.3]",900 to 700000,,EC50 (read-out: 1b (μM): EC50 (Effective 50% inhibitory concentration) against the HCV 1b genotype): 1080 pM
"COC(=O)N[C@@H](C(=O)N1[C@@H]2C[C@@H]2C[C@H]1c1nc(-c2ccc(-c3ccc(-c4c[nH]c([C@@H]5C[C@H]6C[C@H]6N5C(=O)[C@H](NC(=O)OC)[C@H]5C[C@H]6C[C@H]6C5)n4)cc3)cc2)c[nH]1)[C@H]1C[C@H]2C[C@H]2C1 (single isomer, unassigned; diastereomer 3) [QC3.3]",100 to 900,,
"COC(=O)NC(C(=O)N1[C@@H]2C[C@@H]2C[C@H]1c1nc(-c2ccc(-c3ccc(-c4c[nH]c([C@@H]5C[C@H]6C[C@H]6N5C(=O)C(NC(=O)OC)[C@H]5C[C@@H]6C[C@@H]6C5)n4)cc3)cc2)c[nH]1)[C@H]1C[C@@H]2C[C@@H]2C1 (single isomer, unassigned; diastereomer 3) [QC5.3]",,5.01 to 100,EC50 [2]: 5.55 pM
COC(=O)NC(C(=O)N1C(c2nc(-c3ccc(-c4ccc(-c5c[nH]c([C@@H]6CC[C@H](C)N6C(=O)C(NC(=O)OC)C6CCC7(CC7)OC6)n5)cc4)cc3)c[nH]2)CC[C@@H]1C)C1CCC2(CC2)OC1 (stereo partly drawn) [Example 1.1],,5.01 to 100,
COC(=O)NC(C(=O)N1C(c2nc(-c3ccc(-c4ccc(-c5c[nH]c([C@@H]6CC[C@H](C)N6C(=O)C(NC(=O)OC)C6CCC7(CC7)OC6)n5)cc4)cc3)c[nH]2)CC[C@@H]1C)C1CCC2(CC2)OC1 (stereo partly drawn) [Example 1.2],5.01 to 100,,
C=C1CC(C(NC(=O)OC)C(=O)N2[C@@H](C)CC[C@H]2c2ncc(-c3ccc(-c4ccc(-c5cnc([C@@H]6CC[C@H](C)N6C(=O)C(NC(=O)OC)C6CC(=C)C6)[nH]5)cc4)cc3)[nH]2)C1 (stereo partly drawn) [Example 4.2],,100 to 900,EC50 [2]: 243 pM
COC(=O)NC(C(=O)N1[C@@H](C)CC[C@H]1c1ncc(-c2ccc(-c3ccc(-c4cnc([C@@H]5CC[C@H](C)N5C(=O)C(NC(=O)OC)C5CC6(CC6)C5)[nH]4)cc3)cc2)[nH]1)C1CC2(CC2)C1 (stereo partly drawn) [Example 5.2],,900 to 700000,EC50 [2]: 9070 pM
COC(=O)N[C@H](C(=O)N1[C@@H](C)CC[C@H]1c1ncc(-c2ccc(-c3ccc(-c4cnc([C@@H]5CC[C@H](C)N5C(=O)[C@@H](NC(=O)OC)[C@@H]5CCO[C@@H](C6CC6)C5)[nH]4)cc3)cc2)[nH]1)[C@@H]1CCO[C@@H](C2CC2)C1 [Example 6],,5.01 to 100,
COC(=O)N[C@H](C(=O)N1[C@@H](C)CC[C@H]1c1ncc(-c2ccc(-c3ccc(-c4cnc([C@@H]5CC[C@H](C)N5C(=O)[C@@H](NC(=O)OC)[C@@H]5CCO[C@H](C6CC6)C5)[nH]4)cc3)cc2)[nH]1)[C@@H]1CCO[C@H](C2CC2)C1 [Example 7],,5.01 to 100,
COC(=O)N[C@H](C(=O)N1[C@@H](CF)CC[C@H]1c1ncc(-c2ccc(-c3ccc(-c4cnc([C@@H]5CC[C@H](CF)N5C(=O)[C@@H](NC(=O)OC)[C@H]5CCOC6(CC6)C5)[nH]4)cc3)cc2)[nH]1)[C@H]1CCOC2(CC2)C1 [Example 8],,5.01 to 100,
"COC(=O)N[C@H](C(=O)N1[C@@H](C)CC[C@H]1c1ncc(-c2ccc(-c3ccc(-c4cnc([C@@H]5CC[C@H](C)N5C(=O)[C@@H](NC(=O)OC)[C@H]5C[C@H](C)O[C@@H](C6CC6)C5)[nH]4)cc3)cc2)[nH]1)[C@H]1C[C@H](C)O[C@@H](C2CC2)C1 [Example 9.3, dimethyl ((S,R,S,1S,1′S)-((2S,2′S,5S,5′S)-5,5′-(5,5′-([1,1′-biphenyl]-4,4′-diyl)bis(1H-imidazole-5,2-diyl))bis(2-methylpyrrolidine-5,1-diyl))bis(1-((2R,4S,6S)-2-cyclopropyl-6-methyltetrahydro-2H-pyran-4-yl)-2-oxoethane-2,1-diyl))dicarbamate]",,5.01 to 100,
"COC(=O)N[C@H](C(=O)N1[C@@H](C)CC[C@H]1c1ncc(-c2ccc(-c3ccc(-c4cnc([C@@H]5CC[C@H](C)N5C(=O)[C@@H](NC(=O)OC)[C@H]5C[C@@H](C)O[C@H](C6CC6)C5)[nH]4)cc3)cc2)[nH]1)[C@H]1C[C@@H](C)O[C@H](C2CC2)C1 [Example 9.4, dimethyl ((R,S,S,1S,1′S)-((2S,2′S,5S,5′S)-5,5′-(5,5′-([1,1′-biphenyl]-4,4′-diyl)bis(1H-imidazole-5,2-diyl))bis(2-methylpyrrolidine-5,1-diyl))bis(1-((2S,4S,6R)-2-cyclopropyl-6-methyltetrahydro-2H-pyran-4-yl)-2-oxoethane-2,1-diyl))dicarbamate]",,5.01 to 100,EC50 [2]: 9.3 pM
"C#C[C@H]1CC[C@@H](c2ncc(-c3ccc(-c4ccc(-c5cnc([C@@H]6CC[C@H](C#C)N6C(=O)[C@@H](NC(=O)OC)C6C[C@@H](C)O[C@H](C)C6)[nH]5)cc4)cc3)[nH]2)N1C(=O)[C@@H](NC(=O)OC)C1C[C@@H](C)O[C@H](C)C1 (stereo partly drawn) [Example 10, dimethyl (4,4′-biphenyldiylbis(1H-imidazole-5,2-diyl((2S,5R)-5-ethynyl-2,1-pyrrolidinediyl)((1S)-1-((2R,6R)-2,6-dimethyltetrahydro-2H-pyran-4-yl)-2-oxo-2,1-ethanediyl)))biscarbamate]",,5.01 to 100,
